This note sets out measurements from US8471005B2 (Cephalon, Inc., priority 2008, dated 2013).

Structures are written as SMILES.

One assay has as its target T1, ALK (Homo sapiens, UniProt Q9UM73).
T1 construct: host or cells: baculovirus expression system
Description: ALK Kinase Assay (ELISA/TRF, PLC-γ substrate). The note with it: ALK kinase inhibition, 1 μM ATP; read-out: ALK Potency. It counts as biochemical. A digest of the protocol: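 Wells were coated with 10 μg/mL phospholipase C-γ substrate in TBS, and the reaction was started by adding 30 ng/ml ALK enzyme and run at 37° C for 15 minutes. Phosphorylated product was detected with Eu-N1-labeled PT66 antibody, and IC50 values came from sigmoidal variable-slope fits of percent inhibition against log concentration.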
Background: In an ELISA, binding on a coated surface is turned into a signal by an enzyme label.

In the next assay the target is T2, JAK2 (Homo sapiens, UniProt O60674).
T2 construct: host or cells: baculovirus expression system
The experiment in a line: Recombinant Human JAK2 Kinase Assay (TRF). Type of assay: biochemical. The note with it: JAK2 kinase inhibition, 0.2 μM ATP; read-out: JAK2 Potency. A digest of the protocol:
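TRF read-out: Eu-N1 PY100 anti-phosphotyrosine antibody detects product. Enzyme is baculovirus-expressed JAK2 at 15 ng/ml; substrate is a biotinyl 15-mer peptide bound to Neutravidin-coated wells. Buffer 20 mM HEPES pH 7.2, 0.2 μM ATP, 1 mM MnCl2, 0.1% BSA, 2.5% DMSO final; 20 min, RT.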

T2 sequence (O60674 whole entry): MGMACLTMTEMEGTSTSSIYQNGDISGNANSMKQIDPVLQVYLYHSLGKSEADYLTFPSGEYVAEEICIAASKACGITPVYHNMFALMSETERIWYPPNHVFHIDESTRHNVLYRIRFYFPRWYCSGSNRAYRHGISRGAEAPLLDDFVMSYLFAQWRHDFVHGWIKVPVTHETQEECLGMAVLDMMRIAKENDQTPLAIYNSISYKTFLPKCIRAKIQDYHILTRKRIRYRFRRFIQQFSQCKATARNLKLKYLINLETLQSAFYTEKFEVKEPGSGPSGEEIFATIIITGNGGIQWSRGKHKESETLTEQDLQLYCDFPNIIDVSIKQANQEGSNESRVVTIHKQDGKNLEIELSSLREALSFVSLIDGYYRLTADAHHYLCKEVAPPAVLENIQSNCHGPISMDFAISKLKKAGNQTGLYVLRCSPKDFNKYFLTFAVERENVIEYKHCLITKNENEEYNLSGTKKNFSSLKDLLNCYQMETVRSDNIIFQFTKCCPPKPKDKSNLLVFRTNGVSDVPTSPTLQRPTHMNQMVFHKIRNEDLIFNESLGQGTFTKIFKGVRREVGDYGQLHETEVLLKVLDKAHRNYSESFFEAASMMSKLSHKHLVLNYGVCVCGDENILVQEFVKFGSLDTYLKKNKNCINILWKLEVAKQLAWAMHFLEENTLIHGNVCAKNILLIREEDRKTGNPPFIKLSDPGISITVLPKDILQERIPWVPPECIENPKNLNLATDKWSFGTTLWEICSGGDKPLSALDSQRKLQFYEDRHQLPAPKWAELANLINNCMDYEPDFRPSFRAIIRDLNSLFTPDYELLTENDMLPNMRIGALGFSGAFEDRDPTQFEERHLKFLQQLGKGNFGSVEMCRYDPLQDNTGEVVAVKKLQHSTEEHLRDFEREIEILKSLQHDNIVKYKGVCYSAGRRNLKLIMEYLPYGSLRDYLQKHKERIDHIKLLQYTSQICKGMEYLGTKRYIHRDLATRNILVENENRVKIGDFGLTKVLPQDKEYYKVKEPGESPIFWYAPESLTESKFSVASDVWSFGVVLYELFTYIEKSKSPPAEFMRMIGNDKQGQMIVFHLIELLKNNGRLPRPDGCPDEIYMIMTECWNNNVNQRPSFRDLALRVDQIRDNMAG
T1 sequence (Q9UM73 19-1620): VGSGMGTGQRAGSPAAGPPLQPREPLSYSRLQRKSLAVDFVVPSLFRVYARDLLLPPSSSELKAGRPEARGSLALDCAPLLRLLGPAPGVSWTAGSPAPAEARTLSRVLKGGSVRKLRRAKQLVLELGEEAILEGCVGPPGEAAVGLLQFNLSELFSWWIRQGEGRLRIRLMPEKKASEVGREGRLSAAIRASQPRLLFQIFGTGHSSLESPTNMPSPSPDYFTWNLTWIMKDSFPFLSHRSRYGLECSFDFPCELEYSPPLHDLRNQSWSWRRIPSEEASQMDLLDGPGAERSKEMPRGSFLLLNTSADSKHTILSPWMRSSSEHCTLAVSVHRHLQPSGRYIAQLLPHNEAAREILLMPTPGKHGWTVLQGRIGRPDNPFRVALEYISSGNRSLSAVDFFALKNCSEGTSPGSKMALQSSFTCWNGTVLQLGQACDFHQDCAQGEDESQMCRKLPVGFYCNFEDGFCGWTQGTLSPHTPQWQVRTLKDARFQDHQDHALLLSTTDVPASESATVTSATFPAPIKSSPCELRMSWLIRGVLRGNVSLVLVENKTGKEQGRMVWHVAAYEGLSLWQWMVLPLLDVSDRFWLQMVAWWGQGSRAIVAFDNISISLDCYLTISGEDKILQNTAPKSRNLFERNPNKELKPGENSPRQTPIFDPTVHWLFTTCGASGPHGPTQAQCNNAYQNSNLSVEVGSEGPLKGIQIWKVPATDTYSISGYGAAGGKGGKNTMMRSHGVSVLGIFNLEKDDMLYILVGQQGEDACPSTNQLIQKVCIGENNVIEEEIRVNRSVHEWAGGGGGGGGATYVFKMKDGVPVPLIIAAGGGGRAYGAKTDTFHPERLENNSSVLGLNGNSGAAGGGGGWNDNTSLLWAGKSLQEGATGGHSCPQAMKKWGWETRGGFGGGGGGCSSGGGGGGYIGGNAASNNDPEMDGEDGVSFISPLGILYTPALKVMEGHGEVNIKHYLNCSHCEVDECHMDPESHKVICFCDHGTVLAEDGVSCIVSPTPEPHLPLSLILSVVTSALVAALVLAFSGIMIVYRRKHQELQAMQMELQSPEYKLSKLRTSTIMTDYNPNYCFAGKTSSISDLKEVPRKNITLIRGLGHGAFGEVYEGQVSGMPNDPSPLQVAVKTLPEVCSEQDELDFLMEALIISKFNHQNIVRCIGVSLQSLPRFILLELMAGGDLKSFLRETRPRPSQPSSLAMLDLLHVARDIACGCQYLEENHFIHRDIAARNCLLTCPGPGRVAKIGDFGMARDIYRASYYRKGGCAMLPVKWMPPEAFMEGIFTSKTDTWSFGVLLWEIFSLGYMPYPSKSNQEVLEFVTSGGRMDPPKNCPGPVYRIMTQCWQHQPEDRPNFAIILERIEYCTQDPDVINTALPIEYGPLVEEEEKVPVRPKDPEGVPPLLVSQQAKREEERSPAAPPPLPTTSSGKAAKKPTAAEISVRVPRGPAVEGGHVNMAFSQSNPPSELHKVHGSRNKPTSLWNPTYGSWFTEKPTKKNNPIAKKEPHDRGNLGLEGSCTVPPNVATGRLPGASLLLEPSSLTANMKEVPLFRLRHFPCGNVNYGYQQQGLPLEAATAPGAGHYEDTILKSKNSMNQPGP

Turning to `COc1cc(C2CCNCC2)ccc1Nc1ncc2ccc(-c3cccc4c3NC(=O)C4)n2n1` [Example 714, 7-[2-(2-Methoxy-4-piperidin-4-ylphenylamino)pyrrolo[2,1-f][1,2,4]triazin-7-yl]-1,3-dihydro-indol-2-one], the IC50 on ALK and on JAK2 was 1000 to 10000 nM each time.

Consider `c1cc2c(c(-c3ccc4cnc(Nc5cnn(C6CCNCC6)c5)nn34)c1)OCC2` [Example 715, [7-(2,3-Dihydrobenzofuran-7-yl)pyrrolo[2,1-f][1,2,4]triazin-2-yl]-(1-piperidin-4-yl-1H-pyrazol-4-yl)amine], for which the results for the IC50 on ALK and on JAK2 were 100 to 1000 nM and less than 100 nM, respectively.

Consider `COc1ccccc1-c1ccc2cnc(Nc3cnn(C4CCNCC4)c3)nn12` [Example 716, 4-{4-[7-(2-Methoxy-phenyl)-pyrrolo[2,1-f][1,2,4]triazin-2-ylamino]-pyrazol-1-yl}-piperidine], for which the IC50 on ALK and at JAK2 was less than 100 nM in each case.

Turning to `CN(c1ccccc1-c1ccc2cnc(Nc3cnn(C4CCNCC4)c3)nn12)S(C)(=O)=O` [Example 717, N-Methyl-N-{2-[2-(1-piperidin-4-yl-1H-pyrazol-4-ylamino)-pyrrolo[2,1-f][1,2,4]triazin-7-yl]-phenyl}-methanesulfonamide], the IC50 at ALK is 100 to 1000 nM; at JAK2 it was less than 100 nM.

Take `COc1cc(C2CCNCC2O)ccc1Nc1ncc2ccc(-c3cccc4c3OCC4)n2n1` (stereo not drawn) [Example 718, 4-{4-[7-(2,3-Dihydro-benzofuran-7-yl)-pyrrolo[2,1-f][1,2,4]triazin-2-ylamino]-3-methoxy-phenyl}-piperidin-3-ol]: the IC50 on ALK and at JAK2 was less than 100 nM each time.

Turning to `COc1cc(C2CCNCC2)ccc1Nc1ncc2ccc(N3CC(c4ccccc4)CC3=O)n2n1` (stereo not drawn) [Example 719, 1-[2-(2-Methoxy-4-piperidin-4-yl-phenylamino)-pyrrolo[2,1-f][1,2,4]triazin-7-yl]-4-phenyl-pyrrolidin-2-one], the IC50 was 100 to 1000 nM at ALK and 1000 to 10000 nM on JAK2.

In the case of `COc1ccccc1-c1ccn2nc(NCc3cccc(N(C)C)c3)ncc12` [Example 721, (3-Dimethylamino-benzyl)-[5-(2-methoxy-phenyl)-pyrrolo[2,1-f][1,2,4]triazin-2-yl]-amine], the results for the IC50 at ALK and on JAK2 were more than 10000 nM and 1000 to 10000 nM, respectively.

As to `COc1ccccc1-c1ccn2nc(Nc3ccc4c(c3)CN(C)CC4)ncc12` [Example 722, [5-(2-Methoxy-phenyl)-pyrrolo[2,1-f][1,2,4]triazin-2-yl]-(2-methyl-1,2,3,4-tetrahydro-isoquinolin-7-yl)-amine], the IC50 on ALK is more than 10000 nM; at JAK2, 1000 to 10000 nM.

Take `CCN1CCN(C(=O)c2ccc(Nc3ncc4c(-c5ccccc5OC)ccn4n3)cc2)CC1` [Example 723, (4-Ethyl-piperazin-1-yl)-{4-[5-(2-methoxy-phenyl)-pyrrolo[2,1-f][1,2,4]triazin-2-ylamino]-phenyl}-methanone]: the IC50 at ALK was more than 10000 nM; on JAK2, 100 to 1000 nM.

As for `COc1ccc(-c2ccn3nc(Nc4ccc(N5CCN(C)CC5)cc4)ncc23)cc1` [Example 724, [5-(4-Methoxy-phenyl)-pyrrolo[2,1-f][1,2,4]triazin-2-yl]-[4-(4-methyl-piperazin-1-yl)-phenyl]-amine], the IC50 on ALK and at JAK2 was more than 10000 nM in each case.

For the compound `COc1cccc(-c2ccn3nc(Nc4ccc(N5CCN(C)CC5)cc4)ncc23)c1` [Example 725, [5-(3-Methoxy-phenyl)-pyrrolo[2,1-f][1,2,4]triazin-2-yl]-[4-(4-methyl-piperazin-1-yl)-phenyl]-amine], the IC50 at ALK and at JAK2 was more than 10000 nM in each case.

On to `CN1CCN(c2ccc(Nc3ncc4c(-c5ccc(F)cc5)ccn4n3)cc2)CC1` [Example 726, [5-(4-Fluoro-phenyl)-pyrrolo[2,1-f][1,2,4]triazin-2-yl]-[4-(4-methyl-piperazin-1-yl)-phenyl]-amine], for which the IC50 on ALK was 1000 to 10000 nM; at JAK2 it was more than 10000 nM.

Regarding `CCN1CCN(C(=O)c2ccc(Nc3ncc4c(-c5ccc(F)cc5)ccn4n3)cc2)CC1` [Example 727, (4-Ethyl-piperazin-1-yl)-{4-[5-(4-fluoro-phenyl)-pyrrolo[2,1-f][1,2,4]triazin-2-ylamino]-phenyl}-methanone], the IC50 on ALK and on JAK2 was more than 10000 nM throughout.

Consider `CN1CCc2ccc(Nc3ncc4c(-c5ccc(F)cc5)ccn4n3)cc2C1` [Example 728, [5-(4-Fluoro-phenyl)-pyrrolo[2,1-f][1,2,4]triazin-2-yl]-(2-methyl-1,2,3,4-tetrahydro-isoquinolin-7-yl)-amine], for which the IC50 at ALK is more than 10000 nM; on JAK2, 1000 to 10000 nM.

`CN(C)c1cccc(CNc2ncc3c(-c4ccc(F)cc4)ccn3n2)c1` [Example 729, (3-Dimethylamino-benzyl)-[5-(4-fluoro-phenyl)-pyrrolo[2,1-f][1,2,4]triazin-2-yl]-amine]: the IC50 is more than 10000 nM on ALK and 1000 to 10000 nM on JAK2.

For the compound `CN1CCN(c2ccc(Nc3ncc4c(-c5cccc(F)c5)ccn4n3)cc2)CC1` [Example 730, [5-(3-Fluoro-phenyl)-pyrrolo[2,1-f][1,2,4]triazin-2-yl]-[4-(4-methyl-piperazin-1-yl)-phenyl]-amine], the IC50 on ALK is more than 10000 nM; on JAK2 it was 1000 to 10000 nM.

For `COc1cc(C2(O)CCN(C(=O)OC(C)(C)C)CC2)ccc1Nc1ncc2ccc(-c3ccccc3N(C)S(C)(=O)=O)n2n1` [Example 741, 4-Hydroxy-4-(4-{7-[2-(methanesulfonyl-methyl-amino)-phenyl]-pyrrolo[2,1-f][1,2,4]triazin-2-ylamino}-3-methoxy-phenyl)-piperidine-1-carboxylic acid tert-butyl ester], the IC50 on ALK and at JAK2 was 100 to 1000 nM in each case.

Turning to `COc1cc(C2=CCNCC2)ccc1Nc1ncc2ccc(-c3ccccc3N(C)S(C)(=O)=O)n2n1` [Example 742, N-(2-{2-[2-Methoxy-4-(1,2,3,6-tetrahydro-pyridin-4-yl)-phenylamino]-pyrrolo[2,1-f][1,2,4]triazin-7-yl}-phenyl)-N-methyl-methanesulfonamide], the IC50 on ALK was less than 100 nM; at JAK2, 100 to 1000 nM.

As for `CCN1CCC(O)(c2ccc(Nc3ncc4ccc(-c5ccccc5N(C)S(C)(=O)=O)n4n3)c(OC)c2)CC1` [Example 743, N-(2-{2-[4-(1-Ethyl-4-hydroxy-piperidin-4-yl)-2-methoxy-phenylamino]-pyrrolo[2,1-f][1,2,4]triazin-7-yl}-phenyl)-N-methyl-methanesulfonamide], the IC50 on ALK was less than 100 nM; at JAK2, 1000 to 10000 nM.

For the compound `CCN1CC=C(c2ccc(Nc3ncc4ccc(-c5ccccc5N(C)S(C)(=O)=O)n4n3)c(OC)c2)CC1` [Example 744, N-(2-{2-[4-(1-Ethyl-1,2,3,6-tetrahydro-pyridin-4-yl)-2-methoxy-phenylamino]-pyrrolo[2,1-f][1,2,4]triazin-7-yl}-phenyl)-N-methyl-methanesulfonamide], the figures for the IC50 on ALK and on JAK2 were less than 100 nM and 1000 to 10000 nM, respectively.

On to `COc1ccc(-c2ccc3cnc(Nc4ccc(C5CCN(CC(N)=O)CC5)cc4OC)nn23)c(OC)c1` [Example 745, 2-(4-{4-[7-(2,4-Dimethoxy-phenyl)-pyrrolo[2,1-f][1,2,4]triazin-2-ylamino]-3-methoxy-phenyl}-piperidin-1-yl)-acetamide], for which the IC50 at ALK was less than 100 nM; at JAK2 it was 1000 to 10000 nM.

Regarding `COc1cc(C2CCN(CC(N)=O)CC2)ccc1Nc1ncc2ccc(-c3cc(F)c(F)cc3N(C)S(C)(=O)=O)n2n1` [Example 746, 2-[4-(4-{7-[4,5-Difluoro-2-(methanesulfonyl-methyl-amino)-phenyl]-pyrrolo[2,1-f][1,2,4]triazin-2-ylamino}-3-methoxy-phenyl)-piperidin-1-yl]-acetamide], the IC50 is less than 100 nM on ALK and 1000 to 10000 nM on JAK2.

As for `Brc1ccc(Nc2ncc3cc4ccccc4n3n2)cc1` [Example 751, (4-Bromo-phenyl)-[1,2,4]triazino[1,6-a]indol-2-yl-amine], the IC50 on ALK and at JAK2 was more than 10000 nM in each case.

As to `COc1ccc(Nc2ncc3cc4ccccc4n3n2)cc1` [Example 752, (4-Methoxy-phenyl)-[1,2,4]triazino[1,6-a]indol-2-yl-amine], the IC50 on ALK is more than 10000 nM; on JAK2 it was less than 100 nM.

`COc1cc(N2CCN(C[C@H](C)O)CC2)ccc1Nc1ncc2ccc(-c3ccccc3OC)n2n1` [Example 753, (S)-1-(4-{3-Methoxy-4-[7-(2-methoxy-phenyl)-pyrrolo[2,1-f][1,2,4]triazin-2-ylamino]-phenyl}-piperazin-1-yl)-propan-2-ol]: the IC50 at ALK and on JAK2 was less than 100 nM throughout.

`COc1cc(N2CCN(C[C@@H](C)O)CC2)ccc1Nc1ncc2ccc(-c3ccccc3OC)n2n1` [Example 754, (R)-1-(4-{3-Methoxy-4-[7-(2-methoxy-phenyl)-pyrrolo[2,1-f][1,2,4]triazin-2-ylamino]-phenyl}-piperazin-1-yl)-propan-2-ol]: the IC50 on ALK and on JAK2 was less than 100 nM in each case.

Consider `COc1cc(N2CCN(C[C@H](C)O)CC2)ccc1Nc1ncc2ccc(-c3cc(Cl)ccc3OC)n2n1` [Example 755, (S)-1-(4-{4-[7-(5-Chloro-2-methoxy-phenyl)-pyrrolo[2,1-f][1,2,4]triazin-2-ylamino]-3-methoxy-phenyl}-piperazin-1-yl)-propan-2-ol], for which the IC50 at ALK and on JAK2 was less than 100 nM in each case.
